In brackets after ≈: the same amount, converted by molar mass. Like-named read-outs stand apart in the source and are kept apart here.
Experiments:
S. aureus = assay: Automated microscopy cell counting at inhibitory and sub-inhibitory antibiotic concentrations; assay type: cell-based, Staphylococcus aureus; settings: 4 hours
Description: We performed preliminary automated imaging experiments on the Cell Observer microscope (Zeiss, Oberkochen, Germany) (37° C., 640x magnification, DIC). For these experiments, we utilized E. coli ATCC 25922 and S. aureus ATCC 25923 (FIG. 5), prototypical Gram-negative and Gram-positive pathogens. […] Therefore, we conducted automated imaging of the center of 20 wells using 20-50 z-slices of approximately 1 µm thickness. Each image represented approximately 43,500 µm^2. After collapsing z-slices into a single image per well, cells were readily detectable and distributed evenly throughout the field at a density of 10-30 cells per 1000 µm^2 in all wells evaluated.
As proof of concept and preliminary data for image analysis-based direct cell counting, we utilized a machine learning algorithm (Trainable Weka as contained within the Fiji implementation of ImageJ) (Schindelin et al., Nature Methods 9:676-682 (2012)). A training set of 200 manually segmented S. aureus cells was used to establish a model for cell detection. This model accepts raw image data as input (FIG. 7A), classifies each pixel of an image as containing “cells” or “background” resulting in a segmented image (FIG. 7B). The segmented image is then converted to a black and white binary format. A watershed algorithm refines the segmentation by defining borders where two or more cells are in contact with one another and prevents later erroneous single counting of these otherwise fused objects (FIG. 7C). The particle analysis function of ImageJ is then used to identify particles >0.25 µm^2 as individual bacteria (FIG. 7D). Identified bacteria are subsequently counted and their aggregate surface area calculated.
Using our cell counting model, we compared images of S. aureus grown on inhibitory and sub-inhibitory concentrations of antibiotics. […] At the same time point we observed that E. coli cells in wells with sub-inhibitory concentrations of antimicrobial formed large microcolonies, making analysis of individual cells difficult. In cases where individual cells could not be segmented, a machine learning algorithm similar to that outlined in (d) reliably quantifies relative cell coverage in each field.

[1] = system: eighty de-identified Enterobacteriaceae clinical isolates; assay: organism not typed; assay type: cell-based; settings: for Non-susceptible strains (%) / Non-susceptible strains n: eighty clinical isolates, reference microdilution, CLSI criteria, EUCAST for colistin
Description: K. pneumonia BIDMC12A is a previously described, carbapenem resistant clinical isolate (14) expressing a KPC-3 carbapenemase. The eighty de-identified Enterobacteriaceae clinical isolates (Table 1) used for verification studies were collected at our institution under IRB-approved protocols. All strains were minimally passaged and stored at -80° C. prior to use in this study.
Verification study: Digital dispensing and reference method testing were performed in parallel using the same inoculum preparation. Microdilution reference panels were pre-prepared and stored at -80° C. until use (less than 2 weeks). D300 test method panels were prepared fresh each day of use.
Accuracy was evaluated using established guidelines (16, 17). The MIC determined by the digital dispensing method was compared with the MIC determined by the broth microdilution reference method. Essential agreement, overall essential agreement, and categorical agreement were evaluated as described in the precision study.

[2] = system: carbapenem-resistant Escherichia coli clinical isolates (blaKPC); assay: DDM (digital dispensing method) MIC testing of CRE isolates; assay type: cell-based; settings: for MIC: Escherichia coli, read-out: DDM modal MICs
Description: (§1) Bacterial strains: The 10 de-identified CRE clinical isolates used in the study were collected at our institution under Institutional Review Board-approved protocols and were sequenced through the carbapenem-resistant Enterobacteriaceae genome initiative at the Broad Institute (Cambridge, MA). All contained a Klebsiella pneumoniae carbapenemase (blaKPC) gene and were colony-purified, minimally passaged, and stored at -80° C. prior to use in this study.
(§2) After incubation, bacterial growth was quantified by measurement of OD600 using an Epoch (BioTek, Winooski, VT) or Spark 10 M microplate reader (Tecan, Morrisville, NC). An OD600 reading of 0.08 or greater (approximately twice typical background readings in wells containing broth alone) was considered indicative of bacterial growth (as also appreciable by visual assessment).
(§3) Precision and accuracy. […] Modal DDM MICs were calculated by taking the mode of all DDM MIC measurements obtained for a given antibiotic-strain combination, inclusive of initial MIC titrations and single-antibiotic rows/columns in synergy arrays (Table 5).

[3] = system: carbapenem-resistant Klebsiella pneumoniae clinical isolates (blaKPC); assay: as above; assay type: cell-based; settings: for MIC: Klebsiella pneumoniae, read-out: DDM modal MICs
Description: as §1, §2, §3

E. coli ATCC 25922 [4] = settings: CLSI quality control range; cited from earlier work
P. mirabilis ATCC 702 = assay: MIC testing by broth microdilution and D300 digital dispensing (precision study); settings: Proteus mirabilis, ATCC702, read-out: reference MIC
E. coli ATCC 25922 [5] = assay: as above; settings: Escherichia coli, ATCC25922, read-out: reference MIC
E. coli ATCC 25922 [6] = assay: Microscopy-based AST (MAST): cell morphology at the MIC
[7] = in vivo; cited from earlier work
[8] = system: Klebsiella pneumoniae strains expressing extended spectrum β-lactamases; settings: cited from earlier work
[9] = system: Klebsiella pneumoniae strains expressing extended spectrum β-lactamases; settings: cited from earlier work; remark: listed apart in the source

Row | Molecule | Non-susceptible strains (%) [1] [%] | Non-susceptible strains n [1] | MIC ([2]; BIDMC 6, ECO, KPC type 2) [µg/mL] | MIC ([2]; BIDMC 9, ECO, KPC type 2) [µg/mL] | MIC ([2]; BIDMC 15, ECO, KPC type 2) [µg/mL] | MIC ([2]; BIDMC 17A, ECO, KPC type 2) [µg/mL] | MIC ([2]; BIDMC 20A, ECO, KPC type 3) [µg/mL] | MIC ([3]; BIDMC 10, KPN, KPC type 3) [µg/mL] | MIC ([3]; BIDMC 12A, KPN, KPC type 3) [µg/mL] | MIC ([3]; BIDMC 4, KPN, KPC type 3) [µg/mL] | MIC ([3]; BIDMC 5, KPN, KPC type 3) [µg/mL] | MIC ([3]; BIDMC 18A, KPN, KPC type 2) [µg/mL] | further results
1 | CC1(C)S[C@@H]2[C@H](NC(=O)[C@H](N)c3ccccc3)C(=O)N2[C@H]1C(=O)O [Ampicillin (AMP), Ampicillin] | 81.3 | 65 | – | – | – | – | – | – | – | – | – | – | area occupied by cells (S. aureus; 0.5 × the MIC): 555 µm^2; cells detected (S. aureus; 0.5 × the MIC): 242 cells; reduction of cell numbers at the MIC vs 0.5 × the MIC (S. aureus): 5 fold; area occupied by cells (S. aureus; at the MIC): 47 µm^2; cells detected (S. aureus; at the MIC): 51 cells
2 | O=C(N[C@H](CO)[C@H](O)c1ccc([N+](=O)[O-])cc1)C(Cl)Cl [CHL, chloramphenicol] | – | – | 8 | 8 | 8 | 8 | 16 | > 64 | 64 | – | – | – | –
3 | Cc1nnc(SCC2=C(C(=O)O)N3C(=O)[C@@H](NC(=O)Cn4cnnn4)[C@H]3SC2)s1 [Cefazolin (CFZ), Cefazolin] | – | – | – | – | – | – | – | – | – | – | – | – | quality control range (MIC) (E. coli ATCC 25922 [4]): 1 to 4 µg/mL; MIC (P. mirabilis ATCC 702): 4 µg/mL (≈ 8.8 µM); MIC (E. coli ATCC 25922 [5]): 2 µg/mL (≈ 4.4 µM)
4 | O=C(O)c1cn(C2CC2)c2cc(N3CCNCC3)c(F)cc2c1=O [Ciprofloxacin (CIP), Ciprofloxacin] | – | – | – | – | – | – | – | – | – | – | – | – | cell morphology at the MIC (E. coli ATCC 25922 [6]; MAST, 2-hour incubation): elongated cells that failed to divide
5 | C[C@@H]1O[C@@H]1P(=O)(O)O [FOF, fosfomycin] | – | – | 0.5 | 0.5 | 0.5 | 0.5 | 1 | 64 | 8 | 128 | 8 | 4 | –
6 | C[C@H]1COc2c(N3CCN(C)CC3)c(F)cc3c(=O)c(C(=O)O)cn1c23 [LVX, levofloxacin] | – | – | 16 | 16 | 32 | 16 | 32 | 16 | 32 | 128 | > 64 | 64 | –
7 | CN(C)c1ccc(O)c2c1C[C@H]1C[C@H]3[C@H](N(C)C)C(O)=C(C(N)=O)C(=O)[C@@]3(O)C(O)=C1C2=O [MIN, minocycline] | – | – | 1 | 1 | 1 | 1 | 4 | 4 | 4 | 8 | 16 | 2 | serum concentrations [7]: higher serum concentrations than tigecycline; side effects [7]: generally favorable side-effect profile
8 | C[C@@H](O)[C@H]1C(=O)N2C(C(=O)O)=C(S[C@@H]3CN[C@H](C(=O)N(C)C)C3)[C@H](C)[C@H]12 [Meropenem (MEM), Meropenem] | 17.5 | 14 | 2 | 4 | 4 | 2 | 1 | 4 | 8 | 32 | 8 | 32 | survival of infected mice after treatment ([8]; high dose inoculum): survived; survival of infected mice after treatment ([8]; low bacterial inoculum): survived; cell morphology at the MIC (E. coli ATCC 25922 [6]; E. coli after 2 hours, FIG. 13): swelling; cell morphology at the MIC (E. coli ATCC 25922 [6]; MAST, 2-hour incubation): rounded sphereoplasts; in vitro inoculum effect [9]: insignificant inoculum effect; MIC ([1]; read-out: modal MIC): 0.03 µg/mL (≈ 0.0782 µM)
9 | CO[C@H]1/C=C/O[C@@]2(C)Oc3c(C)c(O)c4c(O)c(c(/C=N/N5CCN(C)CC5)c(O)c4c3C2=O)NC(=O)/C(C)=C\C=C\[C@H](C)[C@H](O)[C@@H](C)[C@@H](O)[C@@H](C)[C@H](OC(C)=O)[C@@H]1C [RIF, rifampin] | – | – | 16 | 16 | 32 | 32 | 16 | 32 | 32 | 32 | 32 | 16 | –
10 | CN(C)[C@@H]1C(O)=C(C(N)=O)C(=O)[C@@]2(O)C(O)=C3C(=O)c4c(O)cccc4[C@@](C)(O)[C@H]3C[C@@H]12 [Tetracycline (TET), Tetracycline] | 42.5 | 34 | – | – | – | – | – | – | – | – | – | – | –
11 | CN(C)c1cc(NC(=O)CNC(C)(C)C)c(O)c2c1C[C@H]1C[C@H]3[C@H](N(C)C)C(O)=C(C(N)=O)C(=O)[C@@]3(O)C(O)=C1C2=O [tigecycline] | – | – | – | – | – | – | – | – | – | – | – | – | side effects [7]: significant rates of nausea and vomiting; urinary excretion [7]: limited urinary excretion
12 | Gentamicin [Gentamicin (GEN)] | 31.3 | 25 | – | – | – | – | – | – | – | – | – | – | cell morphology at the MIC (E. coli ATCC 25922 [6]; MAST, 2-hour incubation): blocked cell growth, but did not appreciably alter morphology; DDM modal MICs ([2]; BIDMC 6, ECO, KPC type 2): >32 mg/L; DDM modal MICs ([2]; BIDMC 9, ECO, KPC type 2): >32 mg/L; DDM modal MICs ([2]; BIDMC 15, ECO, KPC type 2): 64 mg/L; DDM modal MICs ([2]; BIDMC 17A, ECO, KPC type 2): >32 mg/L; DDM modal MICs ([2]; BIDMC 20A, ECO, KPC type 3): 0.5 mg/L; DDM modal MICs ([3]; BIDMC 4, KPN, KPC type 3): 32 mg/L; DDM modal MICs ([3]; BIDMC 5, KPN, KPC type 3): 32 mg/L; DDM modal MICs ([3]; BIDMC 10, KPN, KPC type 3): 32 mg/L; DDM modal MICs ([3]; BIDMC 12A, KPN, KPC type 3): 1 mg/L; DDM modal MICs ([3]; BIDMC 18A, KPN, KPC type 2): 64 mg/L

— patent publication US20230304064A1, “AUTOMATED, DIGITAL DISPENSING PLATFORM FOR MICRODILUTION ANTIMICROBIAL SUSCEPTIBILITY TESTING” (priority 2016, published 2023)
